Key:
HCT116 cells [1] = assay: HCT116 proliferation (WST-1 assay); type: cell-based, human; conditions: for inhibition of HCT116 cell proliferation: 50 and 100 µM, 72 h; for IC50: Homo sapiens, HCT-116, 72 h
Description: WST-1 assay was used to determine the effect of these compounds on HCT116 proliferation. Cells were plated in 96-well plate in triplicates (5000 cells per well) for 24 h and treated with 50 and 100 µM of the different compounds for 72 h. […] Culture medium without or with 10% FBS alone was used as basal and maximal proliferation, respectively. Results were expressed as percentage of cells incubated with 10% FBS alone.
(§1) Densitometric analyses were performed using ImageJ software (NIH, MA, USA). The ratio of the different analyzed bands to β-actin was determined and data are represented as fold change compared to the LPS-treated cells. Percentage of viable cells for proliferation assay was determined as percentage to control (non-treated cells). For TUNEL assay, apoptotic cells were quantified, and results were expressed as percentage to positive cells (cleaved DNA) compared to control (non-treated cells). Statistical analysis was performed using one-way ANOVA, followed by Dunnett’s multiple comparisons test using GraphPad Prism software. Differences were considered significant when p < 0.05.

HCT116 cells [2] = assay: TUNEL assay for apoptosis (DNA cleavage) in HCT116; type: cell-based, human; conditions: 10, 25 and 50 µM, 72 h
Description: Terminal deoxynucleotidyl transferase dUTP nick-end labeling (TUNEL) assay (Sigma Aldrich 11684795910) was conducted to detect late phase of apoptosis in HCT116 cells. Cells were plated in 6-well plate (200,000 cells per well) for 24 h, and treated with compounds 1 and 2 at 10, 25, and 50 µM for 72 h. Adherent cells and cells in supernatants were collected and fixed with 4% paraformaldehyde for 2 days and then treated with PBS containing 0.1% Triton X-100 at 4 °C for 2 min. Cells were then stained with the TUNEL reagent for 1 h, and positive signals were quantified using the Guava EasyCyte8 Flow Cytometer-Millipore according to the manufacturer’s instructions.
as §1

Bcl-2 = Bcl-2 protein expression in HCT116 (Western blot); type: cell-based, human; conditions: 10, 25 and 50 µM, 72 h
Description: Macrophages were incubated with the compounds for 30 min prior to the addition of 10 ng/mL LPS for 24 h. Protein levels for COX-2 and NOS2 were detected in LPS-stimulated macrophages. As previously described, 10 µg of total protein was assessed. The primary antibodies were developed and characterized as previously described: for COX-2, mouse monoclonal antibody anti-COX-2 (clone COX-214, 1/5000); for NOS2, rabbit polyclonal antibody anti-NOS2 (dilution1/2000 [33]). Antibodies anti-phospho-NF-κB (3033S), phospho-IκBα (9246S), and total IκBα (4814S) were from Cell Signaling Technologies (Danvers, MA, USA). Total NF-κB C-20 (sc-372) was from Santa Cruz Biotechnologies (Dallas, TX, USA), and mouse β-actin (dilution 1/10,000) (Sigma-Aldrich, A5441). Clarity™ western ECL substrate (Bio-Rad Laboratories 10-5061) was used according to the manufacturer’s instructions to reveal positive bands visualized using Bio-Rad ChemiDoc. For Bcl-2 and cleaved PARP-1, HCT116 cells were plated in 6-well plates (200,000 cells per well) for 24 h, and treated with compounds 1 and 2 at 10, 25, and 50 µM for 72 h. Supernatants and cells were collected and lysed using RIPA lysis buffer containing inhibitors of protease. […]

NO = NO (nitrite) formation in LPS-treated macrophages (BMDM); type: cell-based, C57BL/6J mice; conditions: for effect on NO production: 50 µM, LPS 24 h; for IC50: compounds 30 min prior to 10 ng/mL LPS for 24 h
Description: C57BL/6J (10–15 weeks old) male mice were obtained from the animal care facility at the American University of Beirut. All animal procedures were performed following the recommendations of the IACUC (Institutional Animal Care and Use Committee approval 16-09-M379). BMDMs were prepared and characterized as described previously by our group. BMDMs were isolated from C57BL/6J mice by flushing the femur and tibia with RPMI-1640 culture media (Sigma-Aldrich R7388), and cells were collected and centrifuged at 300× g for 5 min. The supernatant was discarded, and the pellet was resuspended in 2 mL red blood lysis 10% (Sigma-Aldrich R7767) medium in PBS and incubated for 5 min at room temperature. After diluting the suspension of cells with 5 mL of RPMI containing 10% FBS and 1% penicillin–streptomycin, cells were centrifuged at 300× g for 5 min, and the cell pellet was resuspended in RPMI media containing 10% FBS supplemented with 15% L929-conditioned medium containing macrophage-colony stimulating factor (M-CSF1) and plated on […]. Cells were allowed to proliferate and differentiate for 5–6 days. Cells were harvested, washed, and allowed to adhere overnight in RPMI containing 10% FBS for treatment. Cells were previously characterized by flow cytometry as macrophages using this method. […] Cells were plated at 0.8 × 10^6 cells per 3.8 cm^2 well [27].
BMDMs were then treated with different concentrations of the benzofuran and dihydrobenzofuran derivatives for 30 min prior to the addition of 10 ng/mL LPS for 24 h. […] The supernatants were assessed for IL-6, PGE2, CCL2, and nitrite, the stable derivative of NO, as described previously.
IL-6, CCL2, nitrite (for NO), and PGE2 concentrations from 3–5 independent experiments were expressed as percentage of LPS alone and as mean ± SEM. COX activity was determined as percentage of PGE2 produced from exogenous arachidonic acid. Curve fitting and calculation of IC50 values were performed using GraphPad Prism (version 9.5.1 Software, La Jolla, CA, USA).

| SMILES | inhibition of HCT116 cell proliferation (HCT116 cells [1]) | IC50 (HCT116 cells [1]) [µM] | percentage of apoptotic cells, TUNEL (HCT116 cells [2]) | expression of antiapoptotic protein Bcl-2 (Bcl-2) | effect on NO production (NO) | IC50 (NO; Mus musculus, Macrophage) [µM] | IC50 (NO) [µM] |
| --- | --- | --- | --- | --- | --- | --- | --- |
| COC(=O)/C=C1/Oc2ccc(Br)cc2C1(F)F [Compound 1] | more than 50% | 19.5 | concentration-dependent increase | decreased | – | – | – |
| O=C(O)/C=C1/Oc2ccc(Br)cc2C1(F)F [Compound 2] | more than 50% | 24.8 | concentration-dependent increase | decreased | significantly decreased | 2.4 | 2.42 |
| O=C(O)/C=C1\Oc2ccc(Br)cc2C1(F)F [Compound 3] | – | – | – | – | significantly decreased | 5.2 | 5.23 |

— article PMC10299677, “Fluorinated Benzofuran and Dihydrobenzofuran as Anti-Inflammatory and Potential Anticancer Agents” (International Journal of Molecular Sciences, 2023)
